PMC5573328, “Cyclooxygenase-2 contributes to oxidopamine-mediated neuronal inflammation and injury via the prostaglandin E2 receptor EP2 subtype” (Scientific Reports, 2017)

Molecular target: T1, PGE2 receptor EP2 subtype (Mus musculus, UniProt Q62053)
T1 construct: gene Ptger2; endogenous receptor in Neuro-2a cells
Assay: TR-FRET cAMP assay in Neuro-2a cells (agonist dose-response)
Type: cell-based

T1 sequence (Q62053 whole entry): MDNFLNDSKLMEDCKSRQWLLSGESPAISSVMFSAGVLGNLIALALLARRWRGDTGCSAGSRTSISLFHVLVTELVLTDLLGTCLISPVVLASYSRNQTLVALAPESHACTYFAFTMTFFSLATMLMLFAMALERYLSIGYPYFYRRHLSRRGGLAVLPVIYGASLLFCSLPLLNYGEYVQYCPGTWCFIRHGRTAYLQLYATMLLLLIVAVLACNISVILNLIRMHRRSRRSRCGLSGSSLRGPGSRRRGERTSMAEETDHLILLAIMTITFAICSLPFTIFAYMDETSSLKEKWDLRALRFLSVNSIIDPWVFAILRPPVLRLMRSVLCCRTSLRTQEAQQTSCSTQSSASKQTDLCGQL

SMILES: CCCC1([C@H](O)C/C=C/[C@H]2[C@H](O)CC(=O)[C@@H]2CCCCCCC(=O)OC)CCC1 [butaprost]
- EC50: 80 nM
